Test results published in PubChem BioAssay (NCI).
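Growth conditions: 96-well plates. Treatment: test compound, 48 hours, 5 concentrations. Analysis: linear interpolation between bracketing concentrations; unreached endpoints set to highest concentration. TGI is the concentration that stops growth completely.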

Experiments:
Assay in all cases: NCI tumour cell line growth inhibition, 48 h
[1] = test system: SNB-75 CNS
[2] = test system: HT29 colon
[3] = test system: MDA-MB-231 breast
[4] = test system: MDA-MB-435
[5] = test system: COLO 205 colon
[6] = test system: SN12C renal
[7] = test system: SF-539 CNS
[8] = test system: HCC-2998 colon
[9] = test system: CCRF-CEM leukemia
[10] = test system: UACC-62 melanoma
[11] = test system: HCT-15 colon
[12] = test system: DU-145 prostate
[13] = test system: SF-295 CNS
[14] = test system: SW-620 colon
[15] = test system: PC-3 prostate
[16] = test system: SNB-19 CNS
[17] = test system: NCI-H23 lung
[18] = test system: KM12 colon
[19] = test system: HCT-116 colon
[20] = test system: MALME-3M melanoma
[21] = test system: 786-0 renal
[22] = test system: RPMI-8226 leukemia
[23] = test system: K-562 leukemia
[24] = test system: ACHN renal
[25] = test system: SK-MEL-5 melanoma
[26] = test system: MDA-N
[27] = test system: OVCAR-5 ovarian
[28] = test system: IGROV1 ovarian
[29] = test system: NCI/ADR-RES ovarian
[30] = test system: A498 renal
[31] = test system: UACC-257 melanoma
[32] = test system: OVCAR-8 ovarian
[33] = test system: LOX IMVI melanoma
[34] = test system: BT-549 breast
[35] = test system: A549 NSCLC
[36] = test system: UO-31 renal
[37] = test system: NCI-H460 lung
[38] = test system: SK-OV-3 ovarian
[39] = test system: MOLT-4 leukemia
[40] = test system: SF-268 CNS
[41] = test system: SK-MEL-2 melanoma
[42] = test system: NCI-H226 lung
[43] = test system: RXF 393 renal
[44] = test system: T-47D breast
[45] = test system: U251 CNS
[46] = test system: MCF7 breast
[47] = test system: CAKI-1 renal
[48] = test system: EKVX NSCLC
[49] = test system: OVCAR-4 ovarian
[50] = test system: HOP-62 NSCLC
[51] = test system: SR leukemia
[52] = test system: HS 578T breast
[53] = test system: HOP-92 NSCLC
[54] = test system: NCI-H522 lung
[55] = test system: TK-10 renal
[56] = test system: M14 melanoma
[57] = test system: OVCAR-3 ovarian
[58] = test system: SK-MEL-28 melanoma

## CC(C)OC(=O)[C@@H]1OC(C)(C)O[C@H]1C(=O)OC(C)C
[1]
  TGI: > 100 µM
[2]
  TGI: > 100 µM
[3]
  TGI: > 100 µM
[4]
  TGI: > 100 µM
[5]
  TGI: > 100 µM
[6]
  TGI: > 100 µM
[7]
  TGI: > 100 µM
[8]
  TGI: > 100 µM
[9]
  TGI: > 100 µM
[10]
  TGI: > 100 µM
[11]
  TGI: > 100 µM
[12]
  TGI: > 100 µM
[13]
  TGI: > 100 µM
[14]
  TGI: > 100 µM
[15]
  TGI: > 100 µM
[16]
  TGI: > 100 µM
[17]
  TGI: > 100 µM
[18]
  TGI: > 100 µM
[19]
  TGI: > 100 µM
[20]
  TGI: > 100 µM
[21]
  TGI: > 100 µM
[22]
  TGI: > 100 µM
[23]
  TGI: > 100 µM
[24]
  TGI: > 100 µM
[25]
  TGI: > 100 µM
[26]
  TGI: > 100 µM
[27]
  TGI: > 100 µM
[28]
  TGI: > 100 µM
[29]
  TGI: > 100 µM
[30]
  TGI: > 100 µM
[31]
  TGI: > 100 µM
[32]
  TGI: > 100 µM
[33]
  TGI: > 100 µM
[34]
  TGI: > 100 µM
[35]
  TGI: > 100 µM
[36]
  TGI: > 100 µM
[37]
  TGI: > 100 µM
[38]
  TGI: > 100 µM
[39]
  TGI: > 100 µM
[40]
  TGI: > 100 µM
[41]
  TGI: > 100 µM
[42]
  TGI: > 100 µM
[43]
  TGI: > 100 µM
[44]
  TGI: > 100 µM
[45]
  TGI: > 100 µM
[46]
  TGI: > 100 µM
[47]
  TGI: > 100 µM
[48]
  TGI: > 100 µM
[49]
  TGI: > 100 µM
[50]
  TGI: > 100 µM
[51]
  TGI: > 100 µM
[52]
  TGI: > 100 µM
[53]
  TGI: > 100 µM
[54]
  TGI: > 100 µM
[55]
  TGI: > 100 µM

## C/C(=C\COc1cc(O)c2c(c1)C(=O)c1cc(C)cc(O)c1C2=O)CCC1OC1(C)C (stereo unspecified)
[1]
  TGI: > 100 µM
[2]
  TGI: > 100 µM
[3]
  TGI: > 100 µM
[56]
  TGI: > 100 µM
[4]
  TGI: > 100 µM
[5]
  TGI: > 100 µM
[6]
  TGI: > 100 µM
[7]
  TGI: > 100 µM
[8]
  TGI: > 100 µM
[9]
  TGI: > 100 µM
[10]
  TGI: > 100 µM
[11]
  TGI: > 100 µM
[12]
  TGI: > 100 µM
[13]
  TGI: > 100 µM
[15]
  TGI: > 100 µM
[16]
  TGI: > 100 µM
[17]
  TGI: > 100 µM
[18]
  TGI: > 100 µM
[19]
  TGI: > 100 µM
[20]
  TGI: > 100 µM
[21]
  TGI: > 100 µM
[22]
  TGI: > 100 µM
[23]
  TGI: > 100 µM
[24]
  TGI: > 100 µM
[25]
  TGI: > 100 µM
[26]
  TGI: > 100 µM
[27]
  TGI: > 100 µM
[28]
  TGI: > 100 µM
[29]
  TGI: > 100 µM
[30]
  TGI: > 100 µM
[31]
  TGI: > 100 µM
[32]
  TGI: > 100 µM
[33]
  TGI: > 100 µM
[34]
  TGI: > 100 µM
[35]
  TGI: > 100 µM
[36]
  TGI: > 100 µM
[37]
  TGI: > 100 µM
[38]
  TGI: > 100 µM
[57]
  TGI: > 100 µM
[39]
  TGI: > 100 µM
[40]
  TGI: > 100 µM
[41]
  TGI: > 100 µM
[58]
  TGI: > 100 µM
[43]
  TGI: 70.8 µM
[44]
  TGI: > 100 µM
[45]
  TGI: > 100 µM
[46]
  TGI: > 100 µM
[47]
  TGI: 96.5 µM
[48]
  TGI: > 100 µM
[49]
  TGI: > 100 µM
[50]
  TGI: > 100 µM
[51]
  TGI: > 100 µM
[52]
  TGI: > 100 µM
[53]
  TGI: > 100 µM
[54]
  TGI: > 100 µM
[55]
  TGI: > 100 µM
